Each structure is given as a SMILES string.

For this data set, the target named is P-glycoprotein (P-gp) (Sus scrofa, UniProt K7GMM7). The format is in vitro ADME, pig (Sus scrofa domesticus). The following applies: Landrace, pig.
Sequence of P-glycoprotein (P-gp) (K7GMM7 1-1248): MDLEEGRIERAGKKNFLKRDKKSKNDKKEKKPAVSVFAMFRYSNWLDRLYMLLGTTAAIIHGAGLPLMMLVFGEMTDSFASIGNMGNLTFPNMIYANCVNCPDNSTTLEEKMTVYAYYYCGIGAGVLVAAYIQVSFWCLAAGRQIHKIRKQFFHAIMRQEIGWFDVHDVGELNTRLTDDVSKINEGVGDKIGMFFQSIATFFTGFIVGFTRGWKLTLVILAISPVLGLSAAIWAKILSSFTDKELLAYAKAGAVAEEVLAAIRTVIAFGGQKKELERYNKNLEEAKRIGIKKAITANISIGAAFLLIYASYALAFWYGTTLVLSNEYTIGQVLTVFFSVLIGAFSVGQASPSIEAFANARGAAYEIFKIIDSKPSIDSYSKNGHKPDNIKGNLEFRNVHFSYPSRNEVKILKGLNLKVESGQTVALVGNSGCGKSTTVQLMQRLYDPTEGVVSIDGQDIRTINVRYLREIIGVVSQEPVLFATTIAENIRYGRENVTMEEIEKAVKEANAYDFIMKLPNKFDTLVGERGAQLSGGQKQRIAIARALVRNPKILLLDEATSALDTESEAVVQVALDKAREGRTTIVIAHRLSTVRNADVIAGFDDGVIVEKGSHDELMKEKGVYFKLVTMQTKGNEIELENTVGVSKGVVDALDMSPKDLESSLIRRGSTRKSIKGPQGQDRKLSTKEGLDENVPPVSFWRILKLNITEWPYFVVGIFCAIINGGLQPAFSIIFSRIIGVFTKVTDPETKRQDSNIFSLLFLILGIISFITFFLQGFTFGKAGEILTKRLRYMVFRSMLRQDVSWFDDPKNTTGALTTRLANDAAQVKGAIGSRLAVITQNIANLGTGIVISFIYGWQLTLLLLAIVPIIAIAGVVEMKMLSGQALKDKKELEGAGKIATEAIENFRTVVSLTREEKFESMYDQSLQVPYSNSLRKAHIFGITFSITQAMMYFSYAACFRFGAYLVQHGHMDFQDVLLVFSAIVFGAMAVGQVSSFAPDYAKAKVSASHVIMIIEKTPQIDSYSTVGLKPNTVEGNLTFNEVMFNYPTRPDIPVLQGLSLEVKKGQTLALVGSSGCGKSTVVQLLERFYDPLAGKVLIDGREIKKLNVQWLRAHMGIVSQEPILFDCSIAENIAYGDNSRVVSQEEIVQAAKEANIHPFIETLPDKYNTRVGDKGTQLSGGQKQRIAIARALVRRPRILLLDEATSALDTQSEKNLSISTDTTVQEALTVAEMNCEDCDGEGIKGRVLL

As for `COC(=O)c1ccccc1-c1c2ccc(=N)cc-2oc2cc(N)ccc12` [R123, Rhodamine 123], the efflux ratio at 120 min, 5 μM turned out to be 2.2.

By efflux ratio is commonly meant the permeability from basolateral to apical divided by that in the opposite direction, in the common usage.

The record behind these values is publication PMC9326877 (Journal of Food and Drug Analysis, 2018).
